# Test results from ChEMBL document CHEMBL1201862, “PubChem BioAssay data set” (2004).
#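 Exposure lasted 48 hours, with cells grown in 96-well plates and compounds tested at five concentrations. The concentration for 50% growth inhibition is given as GI50.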 Active and inactive are the calls of the source. No stated cut-off is given here; in the data, active = GI50 up to about 1.1 µM and inactive = higher.
# Columns and labels:
# Experiment in all cases: NCI anticancer screen, dose series, 48 h
# 786-0 = test system: 786-0
# A549 = test system: A549
# ACHN = test system: ACHN
# CAKI-1 = test system: CAKI-1
# CCRF-CEM = test system: CCRF-CEM
# COLO 205 = test system: COLO 205
# DLD-1 = test system: DLD-1
# DMS-114 = test system: DMS-114
# DMS-273 = test system: DMS-273
# EKVX = test system: EKVX
# HCC 2998 = test system: HCC 2998
# HCT-15 = test system: HCT-15
# HL-60 = test system: HL-60
# HOP-18 = test system: HOP-18
# HT-29 = test system: HT-29
# IGROV-1 = test system: IGROV-1
# K562 = test system: K562
# KM-20L2 = test system: KM-20L2
# KM12 = test system: KM12
# LOX IMVI = test system: LOX IMVI
# LXFL 529 = test system: LXFL 529
# M14 = test system: M14
# MOLT-4 = test system: MOLT-4
# Malme-3M = test system: Malme-3M
# NCI-H23 = test system: NCI-H23
# NCI-H522 = test system: NCI-H522
# OVCAR-4 = test system: OVCAR-4
# OVCAR-5 = test system: OVCAR-5
# OVCAR-8 = test system: OVCAR-8
# RPMI-8226 = test system: RPMI-8226
# RXF 393 = test system: RXF 393
# RXF 631 = test system: RXF 631
# SF-268 = test system: SF-268
# SF-295 = test system: SF-295
# SF-539 = test system: SF-539
# SK-MEL-28 = test system: SK-MEL-28
# SK-MEL-2 = test system: SK-MEL-2
# SK-MEL-5 = test system: SK-MEL-5
# SK-OV-3 = test system: SK-OV-3
# SN12C = test system: SN12C
# SNB-19 = test system: SNB-19
# SNB-75 = test system: SNB-75
# SNB-78 = test system: SNB-78
# SW-620 = test system: SW-620
# TK-10 = test system: TK-10
# U-251 = test system: U-251
# UACC-257 = test system: UACC-257
# UACC-62 = test system: UACC-62
# UO-31 = test system: UO-31
# XF498 = test system: XF498
# A498 = test system: A498
# HCT-116 = test system: HCT-116
# HOP-62 = test system: HOP-62
# HOP-92 = test system: HOP-92
# M19-MEL = test system: M19-MEL
# NCI-H226 = test system: NCI-H226
# OVCAR-3 = test system: OVCAR-3
# SR = test system: SR
compound,measurement,setting,value
COc1ccc2n[se]nc2c1,GI50,786-0,48.3 µM (inactive)
same,GI50,A549,45.5 µM (inactive)
same,GI50,ACHN,> 100 µM (inactive)
same,GI50,CAKI-1,> 100 µM (inactive)
same,GI50,CCRF-CEM,> 100 µM (inactive)
same,GI50,COLO 205,> 100 µM (inactive)
same,GI50,DLD-1,> 100 µM (inactive)
same,GI50,DMS-114,> 100 µM (inactive)
same,GI50,DMS-273,> 100 µM (inactive)
same,GI50,EKVX,> 100 µM (inactive)
same,GI50,HCC 2998,38.6 µM (inactive)
same,GI50,HCT-15,> 100 µM
same,GI50,HL-60,> 100 µM (inactive)
same,GI50,HOP-18,< 0.01 µM (active)
same,GI50,HT-29,> 100 µM (inactive)
same,GI50,IGROV-1,38.9 µM (inactive)
same,GI50,K562,> 100 µM (inactive)
same,GI50,KM-20L2,> 100 µM (inactive)
same,GI50,KM12,56.4 µM (inactive)
same,GI50,LOX IMVI,> 100 µM (inactive)
same,GI50,LXFL 529,> 100 µM (inactive)
same,GI50,M14,> 100 µM (inactive)
same,GI50,MOLT-4,> 100 µM (inactive)
same,GI50,Malme-3M,65.8 µM (inactive)
same,GI50,NCI-H23,> 100 µM (inactive)
same,GI50,NCI-H522,> 100 µM (inactive)
same,GI50,OVCAR-4,> 100 µM (inactive)
same,GI50,OVCAR-5,> 100 µM (inactive)
same,GI50,OVCAR-8,> 100 µM (inactive)
same,GI50,RPMI-8226,> 100 µM (inactive)
same,GI50,RXF 393,48.4 µM (inactive)
same,GI50,RXF 631,61.4 µM (inactive)
same,GI50,SF-268,> 100 µM (inactive)
same,GI50,SF-295,32 µM (inactive)
same,GI50,SF-539,23.1 µM (inactive)
same,GI50,SK-MEL-28,> 100 µM (inactive)
same,GI50,SK-MEL-2,41.5 µM (inactive)
same,GI50,SK-MEL-5,50.1 µM (inactive)
same,GI50,SK-OV-3,46.3 µM (inactive)
same,GI50,SN12C,> 100 µM (inactive)
same,GI50,SNB-19,69.2 µM (inactive)
same,GI50,SNB-75,64.1 µM (inactive)
same,GI50,SNB-78,> 100 µM (inactive)
same,GI50,SW-620,> 100 µM (inactive)
same,GI50,TK-10,70.6 µM (inactive)
same,GI50,U-251,> 100 µM (inactive)
same,GI50,UACC-257,54.6 µM (inactive)
same,GI50,UACC-62,> 100 µM (inactive)
same,GI50,UO-31,59.3 µM (inactive)
same,GI50,XF498,> 100 µM (inactive)
[C-]#[N+]C(C)(C)C[C@H]1CC(C)C2CCC(C)C3([N+]#[C-])CCC(=C)C1[C@H]23 (stereo not given in full),GI50,786-0,2.34 µM (inactive)
same,GI50,A498,7.96 µM (inactive)
same,GI50,A549,1.58 µM (inactive)
same,GI50,ACHN,0.169 µM (active)
same,GI50,CAKI-1,3.19 µM (inactive)
same,GI50,CCRF-CEM,2.37 µM (inactive)
same,GI50,COLO 205,0.166 µM (active)
same,GI50,DLD-1,0.269 µM (active)
same,GI50,DMS-273,0.286 µM (active)
same,GI50,EKVX,6.55 µM (inactive)
same,GI50,HCC 2998,5.83 µM (inactive)
same,GI50,HCT-116,0.184 µM (active)
same,GI50,HL-60,0.601 µM (active)
same,GI50,HOP-18,0.046 µM (active)
same,GI50,HOP-62,2.55 µM (inactive)
same,GI50,HOP-92,0.106 µM (active)
same,GI50,HT-29,0.413 µM (active)
same,GI50,IGROV-1,1.34 µM (inactive)
same,GI50,K562,0.327 µM (active)
same,GI50,KM-20L2,5.36 µM (inactive)
same,GI50,KM12,0.308 µM (active)
same,GI50,LOX IMVI,0.147 µM (active)
same,GI50,LXFL 529,1.82 µM (inactive)
same,GI50,M14,1.95 µM (inactive)
same,GI50,M19-MEL,1.5 µM (inactive)
same,GI50,MOLT-4,0.316 µM (active)
same,GI50,Malme-3M,5.86 µM (inactive)
same,GI50,NCI-H226,2.32 µM (inactive)
same,GI50,NCI-H23,0.509 µM (active)
same,GI50,NCI-H522,1.95 µM (inactive)
same,GI50,OVCAR-3,2.36 µM (inactive)
same,GI50,OVCAR-4,0.234 µM (active)
same,GI50,OVCAR-5,0.288 µM (active)
same,GI50,OVCAR-8,0.227 µM (active)
same,GI50,RXF 393,0.294 µM (active)
same,GI50,RXF 631,1.86 µM (inactive)
same,GI50,SF-268,0.308 µM (active)
same,GI50,SF-295,0.887 µM (active)
same,GI50,SF-539,3.37 µM (inactive)
same,GI50,SK-MEL-28,11.3 µM (inactive)
same,GI50,SK-MEL-2,0.753 µM (active)
same,GI50,SK-MEL-5,2.67 µM (inactive)
same,GI50,SK-OV-3,3.69 µM (inactive)
same,GI50,SN12C,0.195 µM (active)
same,GI50,SNB-19,2.22 µM (inactive)
same,GI50,SNB-75,8.32 µM (inactive)
same,GI50,SNB-78,0.249 µM (active)
same,GI50,SR,0.418 µM (active)
same,GI50,SW-620,5.08 µM (inactive)
same,GI50,TK-10,5.62 µM (inactive)
same,GI50,U-251,1.51 µM (inactive)
same,GI50,UACC-257,0.959 µM (active)
same,GI50,UACC-62,2.82 µM (inactive)
same,GI50,UO-31,0.251 µM (active)
same,GI50,XF498,2.62 µM (inactive)
